Reference: US9856279B2 (AGIOS PHARMACEUTICALS, INC, priority 2011, dated 2018)

The molecules below were run against IDH1 R132H (Homo sapiens, UniProt O75874, R132H) (assay: Assay for IDH1 R132H inhibitors (NADPH/aKG, resazurin detection)). Conditions: Table 3; enzyme assay, 50 minutes at room temperature; read-out: IC50 (IDH1 R132H Inhibition).
Type: biochemical
Method: Assays were conducted in a volume of 76 μl assay buffer (150 mM NaCl, 10 mM MgCl2, 20 mM Tris pH 7.5, 0.03% bovine serum albumin) as follows in a standard 384-well plate: To 25 ul of substrate mix (8 uM NADPH, 2 mM aKG), 1 μl of test compound was added in DMSO. The plate was centrifuged briefly, and then 25 μl of enzyme mix was added (0.2 μg/ml IDH1 R132H) followed by a brief centrifugation and shake at 100 RPM. The reaction was incubated for 50 minutes at room temperature, then 25 μl of detection mix (30 μM resazurin, […]) was added and the mixture further incubated for 5 minutes at room temperature. The conversion of resazurin to resorufin was detected by fluorescent spectroscopy at Ex544 Em590 c/o 590.

IDH1 R132H, sequence (O75874 whole entry R132H): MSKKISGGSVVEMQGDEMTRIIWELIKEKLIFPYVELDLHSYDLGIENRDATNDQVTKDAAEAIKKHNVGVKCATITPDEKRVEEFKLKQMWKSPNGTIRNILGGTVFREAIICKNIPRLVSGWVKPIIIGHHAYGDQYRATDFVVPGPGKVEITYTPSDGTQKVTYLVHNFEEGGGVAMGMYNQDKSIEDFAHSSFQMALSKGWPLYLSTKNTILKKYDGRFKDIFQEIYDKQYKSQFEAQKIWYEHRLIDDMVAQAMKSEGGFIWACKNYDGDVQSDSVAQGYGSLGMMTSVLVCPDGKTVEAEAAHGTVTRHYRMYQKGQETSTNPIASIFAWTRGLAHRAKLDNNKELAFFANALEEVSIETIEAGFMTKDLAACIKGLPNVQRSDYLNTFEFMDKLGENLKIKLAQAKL

Row | IC50 [nM] | Structure (SMILES)
1 | 1000 to 5000 | CCOc1ccccc1-c1cc(C(C)C)nc(N2CCN(C(=O)c3ccoc3)[C@H](C)C2)c1C#N [Compound 163, (R)-4-(2-ethoxyphenyl)-2-(4-(furan-3-carbonyl)-3-methylpiperazin-1-yl)-6-isopropylnicotinonitrile]
2 | 1000 to 5000 | COCCC(=O)N1CCN(c2nc(C3CC3)c(-c3ccc(OC)c(OC)c3)cc2C#N)C[C@H]1C [Compound 237, (R)-6-cyclopropyl-5-(3,4-dimethoxyphenyl)-2-(4-(3-methoxypropanoyl)-3-methylpiperazin-1-yl)nicotinonitrile]
3 | 1000 to 5000 | CC(C)c1cc(-c2cccc(F)c2)c(C#N)c(N2CCN(C(=O)c3ccco3)CC2)n1 [Compound 114, 4-(3-fluorophenyl)-2-(4-(furan-2-carbonyl)piperazin-1-yl)-6-isopropylnicotinonitrile]
4 | ≤ 1000 | COCCC(=O)N1CCN(c2nc(C3CC3)c(-c3cncc4ccccc34)cc2C#N)C[C@H]1C [Compound 242, (R)-6-cyclopropyl-5-(isoquinolin-4-yl)-2-(4-(3-methoxypropanoyl)-3-methylpiperazin-1-yl)nicotinonitrile]
5 | 1000 to 5000 | CC(C)c1nc(N2CCN(C(=O)c3ccoc3)[C@H](C)C2)c(C#N)cc1-c1cccc(F)c1 [Compound 161, (R)-5-(3-fluorophenyl)-2-(4-(furan-3-carbonyl)-3-methylpiperazin-1-yl)-6-isopropylnicotinonitrile]
6 | 1000 to 5000 | COCCC(=O)N1CCN(c2nc(C(C)C)c(-c3ccc(Cl)cc3)cc2C#N)C[C@H]1C [Compound 215, (R)-5-(4-chlorophenyl)-6-isopropyl-2-(4-(3-methoxypropanoyl)-3-methylpiperazin-1-yl)nicotinonitrile]
7 | 1000 to 5000 | CC(C)c1ccc(-c2cc(C#N)c(N3CCN(C(=O)c4ccoc4)[C@H](C)C3)nc2C(C)C)cc1 [Compound 206, (R)-2-(4-(furan-3-carbonyl)-3-methylpiperazin-1-yl)-6-isopropyl-5-(4-isopropylphenyl)nicotinonitrile]
8 | 5000 to 15000 | N#Cc1cc(-c2ccccc2)c(-c2ccccc2)nc1N1CCN(C(=O)c2ccoc2)CC1 [Compound 122, 2-(4-(furan-3-carbonyl)piperazin-1-yl)-5,6-diphenylnicotinonitrile]
9 | 1000 to 5000 | CC(C)c1nc(N2CCN(C(=O)Cc3cccs3)[C@H](C)C2)c(C#N)cc1-c1ccc(C(F)(F)F)cc1 [Compound 188, (R)-6-isopropyl-2-(3-methyl-4-(2-(thiophen-2-yl)acetyl)piperazin-1-yl)-5-(4-(trifluoromethyl)phenyl)nicotinonitrile]
10 | 1000 to 5000 | CC(C)c1cc(-c2ccccc2)c(C#N)c(N2CCN(C(=O)c3ccco3)C(C)C2)n1 (stereo not shown) [Compound 107, 2-(4-(furan-2-carbonyl)-3-methylpiperazin-1-yl)-6-isopropyl-4-phenylnicotinonitrile]

Same assay, conditions: enzyme assay of Example 12; read-out: IDH1R132H IC50

Row | IC50 [nM] | Structure (SMILES)
11 | 500 to 1000 | COCCC(=O)N1CCN(c2nc(C3CC3)c(-c3cccc(CO)c3)cc2C#N)C[C@H]1C [Compound 306, (R)-6-cyclopropyl-5-(3-(hydroxymethyl)phenyl)-2-(4-(3-methoxypropanoyl)-3-methylpiperazin-1-yl)nicotinonitrile]
12 | 500 to 1000 | N#Cc1cc(-c2cn[nH]c2)c(C2CC2)nc1N1CCN(C(=O)C2CC2)[C@H](C2CC2)C1 [Compound 479, (R)-2-(4-(cyclopropanecarbonyl)-3-cyclopropylpiperazin-1-yl)-6-cyclopropyl-5-(1H-pyrazol-4-yl)nicotinonitrile]
13 | < 500 | N#Cc1cc(-c2cccc3nc(N)ncc23)c(C2CC2)nc1N1CCN(C(=O)C2CC2)[C@H](C2CC2)C1 [Compound 538, (R)-5-(2-aminoquinazolin-5-yl)-2-(4-(cyclopropanecarbonyl)-3-cyclopropylpiperazin-1-yl)-6-cyclopropylnicotinonitrile]
14 | 500 to 1000 | CC1CN(c2nc(C3CC3)c(-c3cccc4cnccc34)cc2C#N)CC(F)CN1C(=O)C1CC1 (stereo not shown) [Compound 484, 2-(4-(cyclopropanecarbonyl)-6-fluoro-3-methyl-1,4-diazepan-1-yl)-6-cyclopropyl-5-(isoquinolin-5-yl)nicotinonitrile]
15 | < 500 | N#Cc1cc(-c2cc(CCN)nc(N)n2)c(C2CC2)nc1N1CCN(C(=O)C2CC2)[C@H](C2CC2)C1 [Compound 701, (R)-5-(2-amino-6-(2-aminoethyl)pyrimidin-4-yl)-2-(4-(cyclopropanecarbonyl)-3-cyclopropylpiperazin-1-yl)-6-cyclopropylnicotinonitrile]
16 | 500 to 1000 | COCCC(=O)N1CCN(c2nc(C3CC3)c(-c3cc4ccccc4[nH]3)cc2C#N)C[C@H]1C [Compound 394, (R)-6-cyclopropyl-5-(1H-indol-2-yl)-2-[4-(3-methoxy-propionyl)-3-methyl-piperazin-1-yl]-nicotinonitrile]
17 | < 500 | C=Cc1cc(-c2cc(C#N)c(N3CCN(C(=O)C[C@H]4CCC(=O)O4)[C@H](C4CC4)C3)nc2C2CC2)ccn1 [Compound 821]
18 | < 500 | COCCC(=O)N1CCN(c2nc(C3CC3)c(-c3cnn(Cc4ccccc4)c3)c(C)c2C#N)C[C@H]1C [Compound 358, (R)-5-(1-benzyl-1H-pyrazol-4-yl)-6-cyclopropyl-2-[4-(3-methoxy-propionyl)-3-methyl-piperazin-1-yl]-4-methyl-nicotinonitrile]
19 | 500 to 1000 | C=Cc1cc(-c2c(C3CC3)nc(N3CCN(C(=O)OC(C)(C)C)[C@H](C4CC4)C3)c(C#N)c2C)cnn1 [Compound 772, (R)-tert-butyl 4-(3-cyano-6-cyclopropyl-4-methyl-5-(6-vinylpyridazin-4-yl)pyridin-2-yl)-2-cyclopropylpiperazine-1-carboxylate]
20 | 500 to 1000 | COCCC(=O)N1CCN(c2nc(C3CC3)c(N3CCN(C(=O)c4ccccc4)CC3)cc2C#N)C[C@H]1C [Compound 379, (R)-5-(4-benzoylpiperazin-1-yl)-6-cyclopropyl-2-(4-(3-methoxypropanoyl)-3-methylpiperazin-1-yl)nicotinonitrile]
21 | 500 to 1000 | N#Cc1cc(-c2cc(Cl)nc3ccccc23)c(C2CC2)nc1N1CCN(C(=O)C2CC2)[C@H](C2CC2)C1 [Compound 543, (R)-5-(2-chloroquinolin-4-yl)-2-(4-(cyclopropanecarbonyl)-3-cyclopropylpiperazin-1-yl)-6-cyclopropylnicotinonitrile]
22 | 500 to 1000 | Cc1cc(-c2cc(C#N)c(N3CCN(C(=O)C4CC4)[C@H](C4CC4)C3)nc2C2CC2)ccn1 [Compound 523, (R)-6-(4-(cyclopropanecarbonyl)-3-cyclopropylpiperazin-1-yl)-2-cyclopropyl-2′-methyl-3,4′-bipyridine-5-carbonitrile]
23 | 500 to 1000 | C=CC(=O)N1CC=C(c2cc(C#N)c(N3CCN(C(=O)C4CC4)[C@H](C)C3)nc2C2CC2)CC1 [Compound 630, (R)-5-(1-acryloyl-1,2,3,6-tetrahydropyridin-4-yl)-2-(4-(cyclopropanecarbonyl)-3-methylpiperazin-1-yl)-6-cyclopropylnicotinonitrile]
24 | 500 to 1000 | C=Cc1cc(-c2cc(C#N)c(N3CCN(C(=O)CN4CCCC4=O)[C@H](C4CC4)C3)nc2C2CC2)ccn1 [Compound 814, (R)-2-cyclopropyl-6-(3-cyclopropyl-4-(2-(2-oxopyrrolidin-1-yl)acetyl)piperazin-1-yl)-2′-vinyl-3,4′-bipyridine-5-carbonitrile]
25 | < 500 | N#Cc1cc(-c2cccc3cnccc23)c(C2CC2)nc1N1CCN(C(=O)C2CC2)C(C(F)(F)F)C1 (stereo not shown) [Compound 397, 2-(4-(cyclopropanecarbonyl)-3-(trifluoromethyl)piperazin-1-yl)-6-cyclopropyl-5-(isoquinolin-5-yl)nicotinonitrile]
26 | < 500 | N#Cc1cncc(-c2cc(C#N)c(N3CCN(C(=O)CC(F)(F)F)[C@H](C4CC4)C3)nc2C2CC2)c1 [Compound 525, (R)-2-cyclopropyl-6-(3-cyclopropyl-4-(3,3,3-trifluoropropanoyl)piperazin-1-yl)-[3,3′-bipyridine]-5,5′-dicarbonitrile]
27 | 500 to 1000 | COCCC(=O)N1CCN(c2nc(C3CC3)c(-c3cccc(N(C)C(=O)C(F)F)c3)cc2C#N)C[C@H]1C [Compound 455]
28 | < 500 | C=Cc1ccnc(Nc2cc(C#N)c(N3CCN(C(=O)/C=C/CCO)[C@H](C4CC4)C3)nc2C2CC2)c1 [Compound 798, (R,E)-6-cyclopropyl-2-(3-cyclopropyl-4-(5-hydroxypent-2-enoyl)piperazin-1-yl)-5-((4-vinylpyridin-2-yl)amino)nicotinonitrile]
29 | < 500 | C=Cc1ccnc(N(c2cc(C=C)ccn2)c2cc(C#N)c(N3CCN(C(=O)CCOC)[C@H](C)C3)nc2C2CC2)c1 [Compound 646, (R)-5-(bis(4-vinylpyridin-2-yl)amino)-6-cyclopropyl-2-(4-(3-methoxypropanoyl)-3-methylpiperazin-1-yl)nicotinonitrile]
30 | < 500 | C=Cc1cc(-c2c(C3CC3)nc(N3CCN(C(=O)/C=C/CCO)[C@H](C(C)C)C3)c(C#N)c2C)ccn1 [Compound 795, (R,E)-2-cyclopropyl-6-(4-(5-hydroxypent-2-enoyl)-3-isopropylpiperazin-1-yl)-4-methyl-2′-vinyl-3,4′-bipyridine-5-carbonitrile]
31 | < 500 | CC(C)(C)OC(=O)Nc1cnnc(-c2cc(C#N)c(N3CCN(C(=O)CCO)[C@H](C4CC4)C3)nc2C2CC2)c1 [Compound 723, (R)-tert-butyl(6-(5-cyano-2-cyclopropyl-6-(3-cyclopropyl-4-(3-hydroxypropanoyl)piperazin-1-yl)pyridin-3-yl)pyridazin-4-yl)carbamate]
